Laboratory results: US9878007B2, “Syndecan peptides and polypeptides as inhibitors of vascular endothelial growth factor receptor-2 (VEGFR2) and very late antigen-4 (VLA-4)” (Wisconsin Alumni Research Foundation, priority 2015, dated 2018)
Each block holds one substance with its values, some of them ahead of it. No end group written: not given here.

What was measured:
Format in all cases: cell-based
[1] = test system: HMEC-1 cells; assay: Transwell migration / invasion assay of HMEC-1 cells; conditions: 16 hr
Method: (§1) FIGS. 8A-H. HPSE mediated the Sdc1-coupled VEGFR2 complex in endothelial cells induces angiogenesis. (FIG. 8A) Lysates from HPSE^low, HPSE^high and HMEC-1 cells are probed by immunoblotting for expression of HPSE. (FIG. 8B) HMEC-1 cells were seeded at equal density and grown in serum-free media for 24 hr in the absence or presence of 125 μg/ml of the HPSE inhibitor SST0001. After 24 hr, conditioned media were harvested, and the level of shed Sdc1 in the conditioned medium from each condition was determined by immunoblotting. (FIG. 8C) HMEC-1 cell lysate was incubated overnight with glutathione beads coated with GST or GST-S1ED. Capture of VLA-4 or VEGFR2 was detected by immunoblotting. (FIG. 8D) HMEC-1 cells were plated on IIICS for 3 hr and double stained for VLA-4 and Sdc1, VEGFR2 and Sdc1, or VLA-4 and VEGFR2. (FIG. 8E) HMEC-1 cells were treated with DMSO, VLA-4 blocking antibody P1H4, β1-integrin blocking antibody mAb13, 10 μg/ml MMP9 blocking antibody, 125 μg/ml HPSE inhibitor SST0001, Vandetanib, VEGFR2 blocking antibody, 30 μM S1ED^210-233 or 30 μM S1ED^214-240 and then plated on IIICS. Images were taken from random field with 200× magnification for counting attached and spread cells. (FIG. 8F) HMEC-1 cells were plated on IIICS in the presence of 10 μM of S1ED^210-236, S1ED^210-233, S1ED^215-240, and S1ED^214-240. Lysates were probed on immunoblots with antibodies against pY^1175 VEGFR2 and VEGFR2. (FIG. 8G) Transwell migration assays towards IIICS (for 16 hr) were performed for HMEC-1 cells in the presence of P1H4, SST0001, Anti-MMP9, Vandetanib, S1ED^210-236, S1ED^210-233, and S1ED^214-240. Images were taken from random field with 200× magnification for counting migrated cells. (FIG. 8H) A 96-well plate coated with 50 μl Matrigel containing 100 μg/ml IIICS per well was solidified at 37° C. for 2 hrs. […]
The bottom chambers of Transwell filter chambers (8 μm pores; Corning) were coated with 40 μg/ml of FN. […] Cells from at least five random fields were counted.

[2] = test system: HMEC-1 cells; assay: Attachment and spreading of HMEC-1 cells on IIICS; conditions: plated on IIICS; 30 μM peptides, 125 μg/ml SST0001, 10 μg/ml MMP9 blocking antibody
Method: as §1, with “S1ED^214-240.” for “S1ED^214-240. Lysates were probed on immunoblots with antibodies against pY^1175 VEGFR2 and VEGFR2. (FIG. 8G) Transwell migration assays towards IIICS (for 16 hr) were performed for HMEC-1 cells in the presence of P1H4, SST0001, Anti-MMP9, Vandetanib, S1ED^210-236, S1ED^210-233, and S1ED^214-240. Images were taken from random field with 200× magnification for counting migrated cells. (FIG. 8H) A 96-well plate coated with 50 μl Matrigel containing 100 μg/ml IIICS per well was solidified at 37° C. for 2 hrs.”

[3] = test system: HMEC-1 cells; assay: In vitro tube formation assay of HMEC-1 cells on Matrigel; conditions: 24 hrs, 10 μM peptides
Method: FIGS. 8A-H. HPSE mediated the Sdc1-coupled VEGFR2 complex in endothelial cells induces angiogenesis. (FIG. 8A) Lysates from HPSE^low, HPSE^high and HMEC-1 cells are probed by immunoblotting for expression of HPSE. (FIG. 8B) HMEC-1 cells were seeded at equal density and grown in serum-free media for 24 hr in the absence or presence of 125 μg/ml of the HPSE inhibitor SST0001. After 24 hr, conditioned media were harvested, and the level of shed Sdc1 in the conditioned medium from each condition was determined by immunoblotting. (FIG. 8C) HMEC-1 cell lysate was incubated overnight with glutathione beads coated with GST or GST-S1ED. Capture of VLA-4 or VEGFR2 was detected by immunoblotting. (FIG. 8D) HMEC-1 cells were plated on IIICS for 3 hr and double stained for VLA-4 and Sdc1, VEGFR2 and Sdc1, or VLA-4 and VEGFR2. (FIG. 8E) HMEC-1 cells were treated with DMSO, VLA-4 blocking antibody P1H4, β1-integrin blocking antibody mAb13, 10 μg/ml MMP9 blocking antibody, 125 μg/ml HPSE inhibitor SST0001, Vandetanib, VEGFR2 blocking antibody, 30 μM S1ED^210-233 or 30 μM S1ED^214-240 and then plated on IIICS. Images were taken from random field with 200× magnification for counting attached and spread cells. (FIG. 8F) HMEC-1 cells were plated on IIICS in the presence of 10 μM of S1ED^210-236, S1ED^210-233, S1ED^215-240, and S1ED^214-240. Lysates were probed on immunoblots with antibodies against pY^1175 VEGFR2 and VEGFR2. (FIG. 8G) Transwell migration assays towards IIICS (for 16 hr) were performed for HMEC-1 cells in the presence of P1H4, SST0001, Anti-MMP9, Vandetanib, S1ED^210-236, S1ED^210-233, and S1ED^214-240. Images were taken from random field with 200× magnification for counting migrated cells. (FIG. 8H) A 96-well plate coated with 50 μl Matrigel containing 100 μg/ml IIICS per well was solidified at 37° C. for 2 hrs. HMEC-1 cells (2.5×10^4 cells/well) were seeded into the plate and cultured in media containing VEGF, SST0001, 10 μM of S1ED^210-236, S1ED^210-233, S1ED^215-240, and S1ED^214-240 for 24 hrs. Enclosed capillary networks of tubes were taken from random field with 200× magnification.

[4] = target: T1, VEGFR2 (Homo sapiens, UniProt P35968); assay: VEGFR2 activation (pY1054/1059 immunoblot) in HPSE^low CAG cells; conditions: 0.3 μM peptide, 2.5 h
T1 construct: endogenous in cells; host or cells: CAG human myeloma cells (HPSE^low = empty vector; HPSE^high = human HPSE cDNA)
Method: FIGS. 4A-C. HPSE expression leads to activation of VEGFR2 when α4-integrin engages ligand. (FIG. 4A) HPSE^low and HPSE^high cells treated with or without 1 μM Vandetanib, 20 ng/ml VEGF, or 20 μg/ml VEGFR2 blocking antibody are plated on VCAM-1 to observe cell spreading (Bar=50 μm); (FIG. 4B) HPSE^high cells plated on FN were treated with MMP-9 blocking antibody or 1 μM Vandetanib in the absence or presence of 0.3 μM S1ED^210-236 (Bar=50 μm); (FIG. 4C) HPSE^low cells were kept in suspension or were seeded on FN in the absence or presence of 0.3 μM S1ED^210-236 for 2.5 h. Cell lysates were immunoblotted with antibodies against pY1054/1059 in VEGFR2 as a marker of VEGFR2 activation. Actin is shown as a loading control.
The inventors next questioned whether VEGFR2 is upstream (e.g., responsible for shedding) or downstream (e.g., a target of the shed Sdc1) of Sdc1 shedding by testing whether or not Sdc1 mimetic peptide could rescue Vandetinib-blocked spreading. HPSE^high cell spreading on FN was inhibited using either anti-MMP9 blocking antibody or Vandetanib in the presence or absence of S1ED^210-236. […] VEGFR2 activation was assessed by measuring autophosphorylation at Tyr1054/1059 in its kinase domain (Lamalice et al., 2007).

T1 sequence (P35968 20-1356): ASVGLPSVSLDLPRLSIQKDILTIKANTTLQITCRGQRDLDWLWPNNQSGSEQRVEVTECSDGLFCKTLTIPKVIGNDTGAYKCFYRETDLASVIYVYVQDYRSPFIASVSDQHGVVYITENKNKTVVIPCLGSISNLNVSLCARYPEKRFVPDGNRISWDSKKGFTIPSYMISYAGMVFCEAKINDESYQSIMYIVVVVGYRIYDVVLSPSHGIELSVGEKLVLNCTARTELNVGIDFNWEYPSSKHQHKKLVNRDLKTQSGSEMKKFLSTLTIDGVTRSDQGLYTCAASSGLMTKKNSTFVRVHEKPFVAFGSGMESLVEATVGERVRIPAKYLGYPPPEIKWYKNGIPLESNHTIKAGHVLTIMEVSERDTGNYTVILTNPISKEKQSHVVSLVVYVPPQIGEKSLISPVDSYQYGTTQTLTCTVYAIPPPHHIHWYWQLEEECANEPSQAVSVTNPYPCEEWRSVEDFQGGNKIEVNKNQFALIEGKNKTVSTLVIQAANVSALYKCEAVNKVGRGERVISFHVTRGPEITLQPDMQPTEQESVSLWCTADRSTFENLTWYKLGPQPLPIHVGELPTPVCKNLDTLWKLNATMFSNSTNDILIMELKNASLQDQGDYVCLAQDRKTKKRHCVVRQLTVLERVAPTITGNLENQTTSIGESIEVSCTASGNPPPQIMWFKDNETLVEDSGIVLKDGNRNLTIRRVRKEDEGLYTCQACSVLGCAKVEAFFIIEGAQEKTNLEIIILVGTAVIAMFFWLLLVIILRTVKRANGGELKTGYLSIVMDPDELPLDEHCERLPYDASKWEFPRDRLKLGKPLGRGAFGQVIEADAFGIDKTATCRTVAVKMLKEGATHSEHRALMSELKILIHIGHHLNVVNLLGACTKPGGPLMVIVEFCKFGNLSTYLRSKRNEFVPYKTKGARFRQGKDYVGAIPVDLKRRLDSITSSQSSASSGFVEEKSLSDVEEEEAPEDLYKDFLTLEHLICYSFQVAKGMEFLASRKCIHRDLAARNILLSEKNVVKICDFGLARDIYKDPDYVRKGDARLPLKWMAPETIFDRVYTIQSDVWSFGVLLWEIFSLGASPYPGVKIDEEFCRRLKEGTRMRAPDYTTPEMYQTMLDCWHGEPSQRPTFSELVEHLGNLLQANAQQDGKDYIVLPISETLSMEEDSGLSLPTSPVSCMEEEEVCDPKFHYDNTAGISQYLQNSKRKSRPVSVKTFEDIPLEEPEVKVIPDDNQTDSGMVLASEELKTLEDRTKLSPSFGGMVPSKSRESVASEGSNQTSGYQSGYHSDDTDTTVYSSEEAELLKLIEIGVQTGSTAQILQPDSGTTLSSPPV

Substance: S1ED^210-233: syndecan-1 ectodomain peptide, residues 210-233 (SEQ ID NO: 4) (DFTFETSGENTAVVAVEPDRRNQS)
invasion of HMEC-1 cells [1]: all block invasion | VLA-4 dependent spreading of HMEC-1 cells [2]: prevented | tube formation by HMEC-1 cells [3]: blocks tube formation

VEGFR2 phosphorylation at Tyr1054/1059 ([4]; HPSE^low cells in suspension): no alteration of VEGFR2 phosphorylation
Substance: DFTFETSGENTAVVAVEPDRRNQSPVD [S1ED^210-236]
invasion of HMEC-1 cells [1]: all block invasion | VEGFR2 phosphorylation at Tyr1054/1059 ([4]; HPSE^low cells plated on FN): causes VEGFR2 phosphorylation in HPSE^low cells plated on FN | tube formation by HMEC-1 cells [3]: blocks tube formation
